Reference: article PMC7383220 (BioFactors (Oxford, England), 2018)
Like-named read-outs stand apart in the source and are kept apart here.

Experiments:
UGT1A1 = molecular target: T1, UGT1A1 (Homo sapiens, UniProt P22309); type: biochemical; settings: for Effect of UGT1A1 inhibitors on rates of BDMC-O-glucuronidation: nilotinib 10 μM, protopanaxatriol 500 μM, glycyrrhetinic acid 20 μM; for Effect on glucuronidation of BDMC by UGT1A1 enzyme: inhibitor 5 and 20 μM
T1 sequence (P22309 26-533): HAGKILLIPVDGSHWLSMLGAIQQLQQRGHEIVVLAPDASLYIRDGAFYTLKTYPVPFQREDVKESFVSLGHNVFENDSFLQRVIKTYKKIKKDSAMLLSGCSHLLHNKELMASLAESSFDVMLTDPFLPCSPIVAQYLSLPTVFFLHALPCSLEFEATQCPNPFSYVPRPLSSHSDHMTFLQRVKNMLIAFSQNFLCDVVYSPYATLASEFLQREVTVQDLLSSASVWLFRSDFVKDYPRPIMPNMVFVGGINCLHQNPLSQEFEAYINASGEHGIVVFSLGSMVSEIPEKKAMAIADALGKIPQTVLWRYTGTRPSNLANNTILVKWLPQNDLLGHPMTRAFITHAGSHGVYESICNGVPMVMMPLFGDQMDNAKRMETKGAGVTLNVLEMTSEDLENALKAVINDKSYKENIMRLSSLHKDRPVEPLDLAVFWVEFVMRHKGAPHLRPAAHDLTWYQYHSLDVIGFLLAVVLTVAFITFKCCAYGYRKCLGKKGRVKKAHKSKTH

HeLa1A1 cells = assay: BDMC-O-glucuronide excretion experiments in HeLa1A1 cells; type: cell-based, human; settings: for Increase of intracellular levels of BDMC-O-glucuronide / Decrease of BDMC-O-glucuronide excretion: inhibitor 5 and 20 μM, 5 μM BDMC, versus control; for Increase of intracellular levels of BDMC-O-glucuronide: cells collected at 2 h
HeLa1A1 cell lysate = molecular target: T2, HeLa1A1 cell lysate (Homo sapiens, UniProt P22309); type: biochemical
T2 sequence (P22309 26-533): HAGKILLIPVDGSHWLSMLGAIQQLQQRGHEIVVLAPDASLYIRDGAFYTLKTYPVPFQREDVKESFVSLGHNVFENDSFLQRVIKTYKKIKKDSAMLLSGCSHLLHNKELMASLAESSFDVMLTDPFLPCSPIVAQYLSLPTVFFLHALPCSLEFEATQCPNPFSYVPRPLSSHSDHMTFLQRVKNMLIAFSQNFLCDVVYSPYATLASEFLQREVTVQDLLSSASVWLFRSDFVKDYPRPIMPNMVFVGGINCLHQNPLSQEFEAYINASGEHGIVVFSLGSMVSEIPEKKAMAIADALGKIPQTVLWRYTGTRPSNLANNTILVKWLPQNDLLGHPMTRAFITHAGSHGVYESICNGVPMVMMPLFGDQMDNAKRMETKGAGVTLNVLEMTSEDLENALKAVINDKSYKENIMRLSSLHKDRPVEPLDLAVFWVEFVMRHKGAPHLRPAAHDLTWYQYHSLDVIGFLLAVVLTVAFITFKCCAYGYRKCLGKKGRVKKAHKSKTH

[1] = substrate: O=C(/C=C/c1ccc(O)cc1)CC(=O)/C=C/c1ccc(O)cc1; assay: cells, lysate or membranes named; settings: pH 7.4, 37.0 °C
[2] = other: UGT1A1 enzyme supplemented with UDPGA
[3] = other: HeLa1A1 cell lysate supplemented with UDPGA

**Q.** How did the “Effect of UGT1A1 inhibitors on rates of BDMC-O-glucuronidation” value (from here on “Effect of UGT1A1 inhibitors”) (UGT1A1) turn out when `CC(C)=CCC[C@](C)(O)[C@H]1CC[C@]2(C)[C@@H]1[C@H](O)C[C@@H]1[C@@]3(C)CC[C@H](O)C(C)(C)[C@@H]3[C@@H](O)C[C@]12C` [protopanaxatriol] was run?
**A.** Its value is “altered”.

**Q.** With `OCCN(CCO)c1nc(N2CCCCC2)c2nc(N(CCO)CCO)nc(N3CCCCC3)c2n1` [DIPY, dipyridamole] as the molecule, how does the “Increase of intracellular levels of BDMC-O-glucuronide” value (HeLa1A1 cells) read?
**A.** Its value is 20.5–25.4%.

**Q.** What about the “Decrease of BDMC-O-glucuronide excretion” value (HeLa1A1 cells) of the same molecule?
**A.** Its value is 8.4–36.5%.

**Q.** What about the “Effect on glucuronidation of BDMC by HeLa1A1 cell lysate” value (HeLa1A1 cell lysate; inhibitor 5 and 20 μM) of the same molecule?
**A.** The value was “inhibit”.

**Q.** And the “Effect on glucuronidation of BDMC by UGT1A1 enzyme” value (UGT1A1)?
**A.** The value was “inhibit”.

**Q.** With `Cc1cn(-c2cc(NC(=O)c3ccc(C)c(Nc4nccc(-c5cccnc5)n4)c3)cc(C(F)(F)F)c2)cn1` [nilotinib] as the molecule, how does the “Effect of UGT1A1 inhibitors” value (UGT1A1) read?
**A.** The value was “altered”.

**Q.** What does the source list for `CN(C)C(=O)CCSC(SCCC(=O)O)c1cccc(/C=C/c2ccc3ccc(Cl)cc3n2)c1` (stereo not shown) [MK-571]?
**A.** Effect on efflux clearance of BDMC-O-glucuronide (HeLa1A1 cells; HeLa1A1 cells, ER/Ci): reduction; Increase of intracellular levels of BDMC-O-glucuronide (HeLa1A1 cells): 27.1–32.6%; Decrease of BDMC-O-glucuronide excretion (HeLa1A1 cells): 6.2~61.6%; Effect on glucuronidation of BDMC by HeLa1A1 cell lysate (HeLa1A1 cell lysate; inhibitor 5 and 20 μM): inhibit; Effect on glucuronidation of BDMC by UGT1A1 enzyme (UGT1A1): inhibit

**Q.** With `CC1(C)[C@@H](O)CC[C@]2(C)[C@H]3C(=O)C=C4[C@@H]5C[C@@](C)(C(=O)O)CC[C@]5(C)CC[C@@]4(C)[C@]3(C)CC[C@@H]12` [glycyrrhetinic acid] as the molecule, how does the “Effect of UGT1A1 inhibitors” value (UGT1A1) read?
**A.** The value was “altered”.

**Q.** `CCCCC/C=C\C\C=C/C=C/C=C/[C@@H](SC[C@H](NC(=O)CC[C@H](N)C(=O)O)C(=O)NCC(=O)O)[C@@H](O)CCCC(=O)O` [LTC4, leukotriene C4] was tested. Which “Effect on excretion of BDMC-O-glucuronide” value (HeLa1A1 cells; LTC4 0.05 and 0.2 μM) did it give?
**A.** The value was “did not show any effects”.

**Q.** What about the “Effect on formation of BDMC-O-glucuronide” value (HeLa1A1 cells; LTC4 0.05 and 0.2 μM) of the same molecule?
**A.** Its value is “did not show any effects”.

**Q.** And the “Effect on glucuronidation of BDMC by HeLa1A1 cell lysate” value (HeLa1A1 cell lysate; LTC4 0.05 and 0.2 μM)?
**A.** The value was “no influences”.

**Q.** What about the “Effect on glucuronidation of BDMC by UGT1A1” value (UGT1A1; LTC4 0.05 and 0.2 μM) of the same molecule?
**A.** The value was “no influences”.

B1: UGT1A1 (Homo sapiens) (protein)
chain: HAGKILLIPVDGSHWLSMLGAIQQLQQRGHEIVVLAPDASLYIRDGAFYTLKTYPVPFQREDVKESFVSLGHNVFENDSFLQRVIKTYKKIKKDSAMLLSGCSHLLHNKELMASLAESSFDVMLTDPFLPCSPIVAQYLSLPTVFFLHALPCSLEFEATQCPNPFSYVPRPLSSHSDHMTFLQRVKNMLIAFSQNFLCDVVYSPYATLASEFLQREVTVQDLLSSASVWLFRSDFVKDYPRPIMPNMVFVGGINCLHQNPLSQEFEAYINASGEHGIVVFSLGSMVSEIPEKKAMAIADALGKIPQTVLWRYTGTRPSNLANNTILVKWLPQNDLLGHPMTRAFITHAGSHGVYESICNGVPMVMMPLFGDQMDNAKRMETKGAGVTLNVLEMTSEDLENALKAVINDKSYKENIMRLSSLHKDRPVEPLDLAVFWVEFVMRHKGAPHLRPAAHDLTWYQYHSLDVIGFLLAVVLTVAFITFKCCAYGYRKCLGKKGRVKKAHKSKTH
**Q.** How did the Km [1, 2] turn out when B1 was run?
**A.** The Km was 5.99 ± 0.83 µM.

**Q.** What about the Vmax [1, 2] of the same molecule?
**A.** Its Vmax is 0.00141 µmol/min/mg.

**Q.** And the Vmax/Km [1, 2]?
**A.** The Vmax/Km was 235 µL/min/mg.

B2: HeLa1A1 cell lysate (Homo sapiens) (protein)
chain: HAGKILLIPVDGSHWLSMLGAIQQLQQRGHEIVVLAPDASLYIRDGAFYTLKTYPVPFQREDVKESFVSLGHNVFENDSFLQRVIKTYKKIKKDSAMLLSGCSHLLHNKELMASLAESSFDVMLTDPFLPCSPIVAQYLSLPTVFFLHALPCSLEFEATQCPNPFSYVPRPLSSHSDHMTFLQRVKNMLIAFSQNFLCDVVYSPYATLASEFLQREVTVQDLLSSASVWLFRSDFVKDYPRPIMPNMVFVGGINCLHQNPLSQEFEAYINASGEHGIVVFSLGSMVSEIPEKKAMAIADALGKIPQTVLWRYTGTRPSNLANNTILVKWLPQNDLLGHPMTRAFITHAGSHGVYESICNGVPMVMMPLFGDQMDNAKRMETKGAGVTLNVLEMTSEDLENALKAVINDKSYKENIMRLSSLHKDRPVEPLDLAVFWVEFVMRHKGAPHLRPAAHDLTWYQYHSLDVIGFLLAVVLTVAFITFKCCAYGYRKCLGKKGRVKKAHKSKTH
**Q.** Which Km [1, 3] does the source give for B2 here?
**A.** Its Km is 7.33 ± 0.83 µM.

**Q.** And the Vmax [1, 3]?
**A.** The Vmax was 0.0012 ± 4.99e-05 µmol/min/mg.

**Q.** What about the Vmax/Km [1, 3] of the same molecule?
**A.** The Vmax/Km was 164 ± 19.8 µL/min/mg.
